Values belong to the molecule of their own block, whether it stands above or below them.
What was measured:
Neutrophil [1] = assay: Effect on cell viability in human neutrophils assessed as decrease in cell viability at 25 uM after 1 hr by Propidium staining based flow cytometric analysis
[2] = Inhibition of PMA-induce ROS/RNS generation in human neutrophils measured up to 30 mins in presence of 30 mM glucose by luminol-amplified chemiluminescence method; type: functional, tissue-based; conditions: Neutrophil, 0.5 h
[3] = Inhibition of PMA-induce ROS/RNS generation in human neutrophils measured up to 30 mins in presence of 5.5 mM glucose by luminol-amplified chemiluminescence method; type: functional, tissue-based; conditions: Neutrophil, 0.5 h
[4] = Ratio of IC50 for inhibition of PMA-induce ROS/RNS generation in human neutrophils measured up to 30 mins in presence of 30 mM glucose to IC50 for inhibition of PMA-induce ROS/RNS generation in human neutrophils measured up to 30 mins in presence of 5.5 mM glucose; type: functional, Neutrophil
Neutrophil [5] = assay: Effect on cell viability in human neutrophils assessed as decrease in cell viability at 12.5 uM after 1 hr by Propidium staining based flow cytometric analysis
Neutrophil [6] = assay: Effect on cell viability in human neutrophils assessed as decrease in cell viability at 50 uM after 1 hr by Propidium staining based flow cytometric analysis
[7] = Inhibition of PMA-induce ROS/RNS generation in human neutrophils at 6.3 uM measured up to 30 mins in presence of 5.5 mM glucose by luminol-amplified chemiluminescence method relative to control; type: functional, Neutrophil; conditions: time min <=30
[8] = Inhibition of PMA-induce ROS/RNS generation in human neutrophils at 6.3 uM measured up to 30 mins in presence of 30 mM glucose by luminol-amplified chemiluminescence method relative to control; type: functional, Neutrophil; conditions: time min <=30
Neutrophil [9] = assay: Effect on cell viability in human neutrophils assessed as decrease in cell viability at 6.3 uM after 1 hr by Propidium staining based flow cytometric analysis
[10] = Inhibition of PMA-induce NET production in human neutrophils at 50 uM incubated for 30 mins in presence of 30 mM glucose by SytoxGreen staining based fluorescence assay relative to control; type: functional; conditions: Neutrophil, 0.5 h
Neutrophil [11] = assay: Inhibition of PMA-induce NET production in human neutrophils incubated for 30 mins in presence of 30 mM glucose by SytoxGreen staining based fluorescence assay; type: functional, tissue-based
Neutrophil [12] = assay: Effect on cell viability in human neutrophils assessed as decrease in cell viability at 3.1 uM after 1 hr by Propidium staining based flow cytometric analysis
[13] = Inhibition of PMA-induce ROS/RNS generation in human neutrophils at 3.1 uM measured up to 30 mins in presence of 30 mM glucose by luminol-amplified chemiluminescence method relative to control; type: functional, Neutrophil; conditions: time min <=30
[14] = Inhibition of PMA-induce ROS/RNS generation in human neutrophils at 12.5 uM measured up to 30 mins in presence of 30 mM glucose by luminol-amplified chemiluminescence method relative to control; type: functional, Neutrophil; conditions: time min <=30
[15] = Inhibition of PMA-induce ROS/RNS generation in human neutrophils at 12.5 uM measured up to 30 mins in presence of 5.5 mM glucose by luminol-amplified chemiluminescence method relative to control; type: functional, Neutrophil; conditions: time min <=30
Neutrophil [16] = assay: Effect on cell viability in human neutrophils assessed as decrease in cell viability at 100 uM after 1 hr by Propidium staining based flow cytometric analysis
[17] = Inhibition of PMA-induce ROS/RNS generation in human neutrophils at 25 uM measured up to 30 mins in presence of 30 mM glucose by luminol-amplified chemiluminescence method relative to control; type: functional, Neutrophil; conditions: time min <=30
[18] = Inhibition of PMA-induce ROS/RNS generation in human neutrophils at 25 uM measured up to 30 mins in presence of 5.5 mM glucose by luminol-amplified chemiluminescence method relative to control; type: functional, Neutrophil; conditions: time min <=30
Neutrophil [19] = assay: Effect on cell viability in human neutrophils assessed as death cell at 100 uM in presence of 30 mM glucose after 1 hr by Propidium staining based flow cytometric analysis (reference value: 0.8 +/- 0.13 %)
Neutrophil [20] = assay: Effect on cell viability in human neutrophils assessed as death cell at 100 uM in presence of 5.5 mM glucose after 1 hr by Propidium staining based flow cytometric analysis (reference value: 0.5 +/- 0.07 %)
[21] = Inhibition of PMA-induce ROS/RNS generation in human neutrophils at 3.1 uM measured up to 30 mins in presence of 5.5 mM glucose by luminol-amplified chemiluminescence method relative to control; type: functional, Neutrophil; conditions: time min <=30
Neutrophil [22] = assay: Effect on cell viability in human neutrophils assessed as death cell at 6.3 uM in presence of 5.5 mM glucose after 1 hr by Propidium staining based flow cytometric analysis (reference value: 0.5 +/- 0.07 %)
Neutrophil [23] = assay: Effect on cell viability in human neutrophils assessed as death cell at 6.3 uM in presence of 30 mM glucose after 1 hr by Propidium staining based flow cytometric analysis (reference value: 0.8 +/- 0.13 %)

Structure (SMILES): O=C(/C=C/c1ccc(Cl)cc1)c1ccccc1 [4-CHLORO CHALCONE]
Activity (Neutrophil [5]): Non-Toxic
IC50 [2]: 5.3 µM
IC50 [3]: 5.4 µM

Structure (SMILES): COc1ccccc1/C=C/C(=O)c1ccccc1O
Imax [7]: 50%
Imax [8]: 34%
Activity (Neutrophil [9]): Non-Toxic

Structure (SMILES): COc1cc(O)c(C(=O)/C=C/c2cc(OC)c(OC)c(OC)c2)c(OC)c1
Imax [7]: 25%
Activity (Neutrophil [12]): Non-Toxic
Imax [13]: 18%

Structure (SMILES): COc1ccc(/C=C/C(=O)c2ccc(O)cc2O)cc1
Imax [14]: 44%
Imax [15]: 46%
Activity (Neutrophil [5]): Non-Toxic

Structure (SMILES): O=C(/C=C/c1ccccc1O)c1ccccc1
Activity (Neutrophil [6]): Non-Toxic
IC50 [2]: 5 µM
IC50 [3]: 6.7 µM

Structure (SMILES): Cc1cc(C)c(/C=C/C(=O)c2ccccc2O)c(C)c1
Imax [7]: 26%
Activity (Neutrophil [12]): Non-Toxic
Imax [13]: 25%

Structure (SMILES): COc1ccc(/C=C/C(=O)c2ccccc2O)cc1
Imax [17]: 32%
Activity (Neutrophil [1]): Non-Toxic
Imax [18]: 50%

Structure (SMILES): O=C(/C=C/c1ccccc1)c1ccccc1 [CHALCONE]
Activity (Neutrophil [6]): Non-Toxic
Activity (Neutrophil [19]): 5%
Activity (Neutrophil [20]): 0.6%
IC50 [2]: 27 µM
IC50 [3]: 13 µM
Ratio IC50 [4]: 2

Structure (SMILES): COc1ccc(/C=C/C(=O)c2c(O)cc(OC)cc2OC)cc1 [FLAVOKAWAIN A]
Activity (Neutrophil [12]): Non-Toxic
Imax [21]: 13%
Imax [13]: 19%

Structure (SMILES): O=C(/C=C/c1ccc(Cl)cc1Cl)c1ccccc1O
Imax [14]: 28%
Imax [15]: 30%
Activity (Neutrophil [5]): Non-Toxic

Now from value to molecule, other results behind:

IC50 [2]: 5.7 µM
IC50 [3]: 3 µM
Structure (SMILES): COc1cccc(/C=C/C(=O)c2ccccc2O)c1
Activity (Neutrophil [1]): Non-Toxic
Ratio IC50 [4]: 2

IC50 [2]: 3 µM
IC50 [3]: 2.9 µM
Structure (SMILES): O=C(/C=C/c1ccc(O)cc1O)c1ccc(O)cc1O
Activity (Neutrophil [5]): Non-Toxic

IC50 [2]: 1.5 µM
IC50 [3]: 1.6 µM
Structure (SMILES): O=C(/C=C/c1ccc(O)cc1)c1ccccc1O
Activity (Neutrophil [6]): Non-Toxic

IC50 [2]: 5 µM
IC50 [3]: 4.4 µM
Structure (SMILES): O=C(/C=C/c1ccc(O)c(O)c1)c1c(O)cc(O)cc1O [3,4,2',4',6'-PENTAHYDROXYCHALCONE]
Activity (Neutrophil [6]): Non-Toxic
inhibition at 50 µM [10]: 48%
inhibition (Neutrophil [11]): Dose-dependent effect

IC50 [2]: 5.8 µM
IC50 [3]: 5.8 µM
Structure (SMILES): O=C(/C=C/c1ccccc1O)c1ccccc1O
Activity (Neutrophil [1]): Non-Toxic

IC50 [2]: 22.3 µM
IC50 [3]: 27 µM
Structure (SMILES): O=C(/C=C/c1cccc(O)c1)c1ccccc1 [3-HYDROXY CHALCONE]
Activity (Neutrophil [16]): Non-Toxic

IC50 [3]: 2.8 µM
Structure (SMILES): Cc1cccc(/C=C/C(=O)c2ccccc2O)c1
Imax [14]: 47%
Activity (Neutrophil [5]): Non-Toxic
Ratio IC50 [4]: 2

IC50 [2]: 7 µM
IC50 [3]: 6.4 µM
Structure (SMILES): COc1ccc(/C=C/C(=O)c2ccc(O)cc2O)cc1OC
Activity (Neutrophil [5]): Non-Toxic

IC50 [2]: 20 µM
IC50 [3]: 15 µM
Structure (SMILES): COc1ccc(/C=C/C(=O)c2ccccc2)cc1OC
Activity (Neutrophil [16]): Non-Toxic

IC50 [2]: 74 µM
IC50 [3]: 78 µM
Structure (SMILES): COc1cc(O)c(C(=O)/C=C/c2ccc(OC)c(OC)c2)c(OC)c1
Activity (Neutrophil [16]): Non-Toxic

IC50 [2]: 15 µM
IC50 [3]: 6.4 µM
Structure (SMILES): COc1ccc(/C=C/C(=O)c2ccccc2O)cc1OC
Activity (Neutrophil [6]): Non-Toxic
Ratio IC50 [4]: 2

IC50 [2]: 3 µM
IC50 [3]: 3.4 µM
Structure (SMILES): COc1cc(/C=C/C(=O)c2ccccc2O)cc(OC)c1OC
Activity (Neutrophil [6]): Non-Toxic

IC50 [2]: 2 µM
IC50 [3]: 1 µM
Structure (SMILES): COc1cc(/C=C/C(=O)c2ccccc2O)ccc1O
Activity (Neutrophil [22]): 0.4%
Activity (Neutrophil [23]): 0.4%
Activity (Neutrophil [9]): Non-Toxic

IC50 [2]: 11.6 µM
IC50 [3]: 8.8 µM
Structure (SMILES): O=C(/C=C/c1ccc(O)cc1)c1ccccc1 [4-HYDROXYCHALCONE]
Activity (Neutrophil [6]): Non-Toxic

IC50 [2]: 12 µM
IC50 [3]: 13 µM
Structure (SMILES): O=C(/C=C/c1ccc(O)cc1O)c1ccccc1
Activity (Neutrophil [1]): Non-Toxic

Reference: ChEMBL document CHEMBL4699537, “Chalcones as Modulators of Neutrophil Oxidative Burst under Physiological and High Glucose Conditions” (J Nat Prod, 2020)
